Molecular target: IDH1 R132H (Homo sapiens (Human), UniProt O75874, R132H)
Assay: Assays for IDH1 R132H Inhibitors (NADPH/aKG, resazurin detection)
Type: biochemical
Conditions: IDH1 R132H enzyme, Table 2; read-out: IDHR132H Activity
Outline: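 Substrate mix held 8 uM NADPH plus 2 mM aKG; buffer was 20 mM Tris pH 7.5 with 150 mM NaCl, 10 mM MgCl2, 0.03% BSA. After 50 min room-temperature reaction, NADPH remaining was detected with 30 μM resazurin mix over 5 min.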

Sequence of IDH1 R132H (O75874 whole entry R132H): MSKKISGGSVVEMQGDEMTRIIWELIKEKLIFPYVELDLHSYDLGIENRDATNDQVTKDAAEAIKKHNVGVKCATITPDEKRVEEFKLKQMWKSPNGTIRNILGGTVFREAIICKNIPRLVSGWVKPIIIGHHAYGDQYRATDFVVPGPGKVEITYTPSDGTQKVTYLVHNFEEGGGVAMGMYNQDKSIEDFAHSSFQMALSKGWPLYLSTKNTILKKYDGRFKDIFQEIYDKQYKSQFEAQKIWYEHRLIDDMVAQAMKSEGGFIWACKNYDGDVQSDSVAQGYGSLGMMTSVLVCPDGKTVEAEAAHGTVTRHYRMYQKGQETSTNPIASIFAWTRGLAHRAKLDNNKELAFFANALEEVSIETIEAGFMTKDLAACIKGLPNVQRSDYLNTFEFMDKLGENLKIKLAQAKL

**Q.** Which IC50 does the source give for COc1ccccc1CC(=O)N1CCN(c2nc(C3CCCCC3)c3c(c2C#N)CCOC3)C[C@H]1C [Compound 224, (R)-8-cyclohexyl-6-(4-(2-(2-methoxyphenyl)acetyl)-3-methylpiperazin-1-yl)-3,4-dihydro-1H-pyrano[3,4-c]pyridine-5-carbonitrile] here?
**A.** 1000 to 10000 nM

**Q.** How did the IC50 turn out when Cc1ncoc1C(=O)N1CCN(c2nc(C3CCCCC3)c3c(c2C#N)CCOC3)C[C@H]1C [Compound 225, (R)-8-cyclohexyl-6-(3-methyl-4-(4-methyloxazole-5-carbonyl)piperazin-1-yl)-3,4-dihydro-1H-pyrano[3,4-c]pyridine-5-carbonitrile] was run?
**A.** 1000 to 10000 nM

**Q.** Which IC50 does the source give for C[C@@H]1CN(c2nc(C3CCCCC3)c3c(c2C#N)CCOC3)CCN1C(=O)c1cocn1 [Compound 226, (R)-8-cyclohexyl-6-(3-methyl-4-(oxazole-4-carbonyl)piperazin-1-yl)-3,4-dihydro-1H-pyrano[3,4-c]pyridine-5-carbonitrile] here?
**A.** 1000 to 10000 nM

**Q.** C[C@@H]1CN(c2nc(C3CCCCC3)c3c(c2C#N)CCOC3)CCN1C(=O)c1cnc2ccccn12 [Compound 227, (R)-8-cyclohexyl-6-(4-(imidazo[1,2-a]pyridine-3-carbonyl)-3-methylpiperazin-1-yl)-3,4-dihydro-1H-pyrano[3,4-c]pyridine-5-carbonitrile] was tested. Which IC50 did it give?
**A.** 1000 to 10000 nM

**Q.** Which IC50 does the source give for CC(C)[C@@H]1CN(c2nc(C3CC3)c3c(c2C#N)CC(C)(C)OC3)CCN1C(=O)Cc1ccccc1F [Compound 228] here?
**A.** 1000 to 10000 nM

**Q.** Which IC50 does the source give for Cc1nc2ccccn2c1C(=O)N1CCN(c2nc(C3CC3)c3c(c2C#N)CC(C)(C)OC3)C[C@H]1C(C)C [Compound 229] here?
**A.** 1000 to 10000 nM

**Q.** CC(C)[C@@H]1CN(c2nc(C3CC3)c3c(c2C#N)CC(C)(C)OC3)CCN1C(=O)c1cnn2cccnc12 [Compound 232, (R)-8-cyclopropyl-6-(3-isopropyl-4-(pyrazolo[1,5-a]pyrimidine-3-carbonyl)piperazin-1-yl)-3,3-dimethyl-3,4-dihydro-1H-pyrano[3,4-c]pyridine-5-carbonitrile] was tested. Which IC50 did it give?
**A.** 1000 to 10000 nM

**Q.** COc1cccc(CC(=O)N2CCN(c3nc(C(C)C)c4c(c3C#N)CC(C)(C)OC4)C[C@H]2C(C)C)c1 [Compound 233, (R)-8-isopropyl-6-(3-isopropyl-4-(2-(3-methoxyphenyl)acetyl)piperazin-1-yl)-3,3-dimethyl-3,4-dihydro-1H-pyrano[3,4-c]pyridine-5-carbonitrile] was tested. Which IC50 did it give?
**A.** 1000 to 10000 nM

**Q.** Which IC50 does the source give for CC(C)c1nc(N2CCN(C(=O)Cc3cccc(F)c3)[C@H](C(C)C)C2)c(C#N)c2c1COC(C)(C)C2 [Compound 234, (R)-6-(4-(2-(3-fluorophenyl)acetyl)-3-isopropylpiperazin-1-yl)-8-isopropyl-3,3-dimethyl-3,4-dihydro-1H-pyrano[3,4-c]pyridine-5-carbonitrile] here?
**A.** 1000 to 10000 nM

**Q.** With CC[C@@H]1CN(c2nc(C3CC3)c3c(c2C#N)CC(C)(C)OC3)CCN1C(=O)c1ccoc1 [Compound 235] as the compound, how does the IC50 read?
**A.** < 500 nM

**Q.** Which IC50 does the source give for CC[C@@H]1CN(c2nc(C3CC3)c3c(c2C#N)CC(C)(C)OC3)CCN1C(=O)Cc1cccs1 [Compound 236] here?
**A.** < 500 nM

**Q.** Which IC50 does the source give for CC[C@@H]1CN(c2nc(C3CC3)c3c(c2C#N)CC(C)(C)OC3)CCN1C(=O)c1ccoc1C [Compound 237, (R)-8-cyclopropyl-6-(3-ethyl-4-(2-methylfuran-3-carbonyl)piperazin-1-yl)-3,3-dimethyl-3,4-dihydro-1H-pyrano[3,4-c]pyridine-5-carbonitrile] here?
**A.** < 500 nM

**Q.** C[C@@H]1CN(c2nc(C3CCCCC3)c3c(c2C#N)CCOC3)CCN1C(=O)Cc1ccccn1 [Compound 238, (R)-8-cyclohexyl-6-(3-methyl-4-(2-(pyridin-2-yl)acetyl)piperazin-1-yl)-3,4-dihydro-1H-pyrano[3,4-c]pyridine-5-carbonitrile] was tested. Which IC50 did it give?
**A.** 1000 to 10000 nM

**Q.** With C[C@@H]1CN(c2nc(C3CCCCC3)c3c(c2C#N)CCOC3)CCN1C(=O)c1cscn1 [Compound 239, (R)-8-cyclohexyl-6-(3-methyl-4-(thiazole-4-carbonyl)piperazin-1-yl)-3,4-dihydro-1H-pyrano[3,4-c]pyridine-5-carbonitrile] as the compound, how does the IC50 read?
**A.** 1000 to 10000 nM

**Q.** With COCCC(=O)N1CCN(c2nc(C3CCCCC3)c3c(c2C#N)CCOC3)C[C@H]1C [Compound 240, (R)-8-cyclohexyl-6-(4-(3-methoxypropanoyl)-3-methylpiperazin-1-yl)-3,4-dihydro-1H-pyrano[3,4-c]pyridine-5-carbonitrile] as the compound, how does the IC50 read?
**A.** 1000 to 10000 nM

**Q.** Which IC50 does the source give for C[C@@H]1CN(c2nc(C3CCCCC3)c3c(c2C#N)CCOC3)CCN1C(=O)c1cccs1 [Compound 241, (R)-8-cyclohexyl-6-(3-methyl-4-(thiophene-2-carbonyl)piperazin-1-yl)-3,4-dihydro-1H-pyrano[3,4-c]pyridine-5-carbonitrile] here?
**A.** 1000 to 10000 nM

**Q.** How did the IC50 turn out when C[C@@H]1CN(c2nc(C3CCCCC3)c3c(c2C#N)CCOC3)CCN1C(=O)c1ccsc1 [Compound 242, (R)-8-cyclohexyl-6-(3-methyl-4-(thiophene-3-carbonyl)piperazin-1-yl)-3,4-dihydro-1H-pyrano[3,4-c]pyridine-5-carbonitrile] was run?
**A.** 1000 to 10000 nM

**Q.** Which IC50 does the source give for C[C@@H]1CN(c2nc(C3CCCCC3)c3c(c2C#N)CCOC3)CCN1C(=O)c1csc2ccccc12 [Compound 243, (R)-6-(4-(benzo[b]thiophene-3-carbonyl)-3-methylpiperazin-1-yl)-8-cyclohexyl-3,4-dihydro-1H-pyrano[3,4-c]pyridine-5-carbonitrile] here?
**A.** 1000 to 10000 nM

**Q.** Cc1cc(C(=O)N2CCN(c3nc(C4CC4)c4c(c3C#N)CC(C)(C)OC4)C[C@H]2C)c(C)o1 [Compound 244] was tested. Which IC50 did it give?
**A.** 1000 to 10000 nM

**Q.** With Cc1cncc(C(=O)N2CCN(c3nc(C4CC4)c4c(c3C#N)CC(C)(C)OC4)C[C@H]2C(C)C)c1 [Compound 245, (R)-8-cyclopropyl-6-(3-isopropyl-4-(5-methylnicotinoyl)piperazin-1-yl)-3,3-dimethyl-3,4-dihydro-1H-pyrano[3,4-c]pyridine-5-carbonitrile] as the compound, how does the IC50 read?
**A.** 1000 to 10000 nM

**Q.** CC(C)c1nc(N2CCN(C(=O)c3cccs3)[C@H](C)C2)c(C#N)c2c1COC(C)(C)C2 [Compound 246, (R)-8-isopropyl-3,3-dimethyl-6-(3-methyl-4-(thiophene-2-carbonyl)piperazin-1-yl)-3,4-dihydro-1H-pyrano[3,4-c]pyridine-5-carbonitrile] was tested. Which IC50 did it give?
**A.** 1000 to 10000 nM

**Q.** With CC(C)c1nc(N2CCN(C(=O)c3csc4ccccc34)[C@H](C)C2)c(C#N)c2c1COC(C)(C)C2 [Compound 247, (R)-6-(4-(benzo[b]thiophene-3-carbonyl)-3-methylpiperazin-1-yl)-8-isopropyl-3,3-dimethyl-3,4-dihydro-1H-pyrano[3,4-c]pyridine-5-carbonitrile] as the compound, how does the IC50 read?
**A.** 1000 to 10000 nM

**Q.** Which IC50 does the source give for CC(C)c1nc(N2CCN(C(=O)Cc3cccnc3)[C@H](C)C2)c(C#N)c2c1COC(C)(C)C2 [Compound 248, (R)-8-isopropyl-3,3-dimethyl-6-(3-methyl-4-(2-(pyridin-3-yl)acetyl)piperazin-1-yl)-3,4-dihydro-1H-pyrano[3,4-c]pyridine-5-carbonitrile] here?
**A.** 1000 to 10000 nM

**Q.** CC(C)c1nc(N2CCN(C(=O)c3cccnc3)[C@H](C)C2)c(C#N)c2c1COC(C)(C)C2 [Compound 249, (R)-8-isopropyl-3,3-dimethyl-6-(3-methyl-4-nicotinoylpiperazin-1-yl)-3,4-dihydro-1H-pyrano[3,4-c]pyridine-5-carbonitrile] was tested. Which IC50 did it give?
**A.** 1000 to 10000 nM

**Q.** Which IC50 does the source give for CC(C)c1nc(N2CCN(C(=O)Cc3cccnc3)[C@H](C(C)C)C2)c(C#N)c2c1COC(C)(C)C2 [Compound 250, (R)-8-isopropyl-6-(3-isopropyl-4-(2-(pyridin-3-yl)acetyl)piperazin-1-yl)-3,3-dimethyl-3,4-dihydro-1H-pyrano[3,4-c]pyridine-5-carbonitrile] here?
**A.** 500 to 1000 nM

**Q.** CC(C)c1nc(N2CCN(C(=O)c3ccsc3)[C@H](C)C2)c(C#N)c2c1COC(C)(C)C2 [Compound 251, (R)-8-isopropyl-3,3-dimethyl-6-(3-methyl-4-(thiophene-3-carbonyl)piperazin-1-yl)-3,4-dihydro-1H-pyrano[3,4-c]pyridine-5-carbonitrile] was tested. Which IC50 did it give?
**A.** 1000 to 10000 nM

**Q.** With CC(C)c1nc(N2CCN(C(=O)c3cscn3)[C@H](C)C2)c(C#N)c2c1COC(C)(C)C2 [Compound 252, (R)-8-isopropyl-3,3-dimethyl-6-(3-methyl-4-(thiazole-4-carbonyl)piperazin-1-yl)-3,4-dihydro-1H-pyrano[3,4-c]pyridine-5-carbonitrile] as the compound, how does the IC50 read?
**A.** 1000 to 10000 nM

**Q.** CC(C)c1nc(N2CCN(C(=O)C3CCOC3)[C@H](C)C2)c(C#N)c2c1COC(C)(C)C2 (stereo partly drawn) [Compound 253, 8-isopropyl-3,3-dimethyl-6-((3R)-3-methyl-4-(tetrahydrofuran-3-carbonyl)piperazin-1-yl)-3,4-dihydro-1H-pyrano[3,4-c]pyridine-5-carbonitrile] was tested. Which IC50 did it give?
**A.** 1000 to 10000 nM

**Q.** COc1cccc(CC(=O)N2CCN(c3nc(C4CC4)c4c(c3C#N)CC(C)(C)OC4)C[C@H]2C(C)C)c1 [Compound 254] was tested. Which IC50 did it give?
**A.** 500 to 1000 nM

**Q.** With CC(C)c1nc(N2CCN(C(=O)c3ccoc3)[C@H](c3ccccc3)C2)c(C#N)c2c1COC(C)(C)C2 [Compound 256, (R)-6-(4-(furan-3-carbonyl)-3-phenylpiperazin-1-yl)-8-isopropyl-3,3-dimethyl-3,4-dihydro-1H-pyrano[3,4-c]pyridine-5-carbonitrile] as the compound, how does the IC50 read?
**A.** 1000 to 10000 nM

**Q.** CC(C)c1nc(N2CCN(C(=O)c3ccoc3)[C@@H](c3ccccc3)C2)c(C#N)c2c1COC(C)(C)C2 [Compound 257, (S)-6-(4-(furan-3-carbonyl)-3-phenylpiperazin-1-yl)-8-isopropyl-3,3-dimethyl-3,4-dihydro-1H-pyrano[3,4-c]pyridine-5-carbonitrile] was tested. Which IC50 did it give?
**A.** 1000 to 10000 nM

**Q.** How did the IC50 turn out when CCOC(=O)C1CN(c2nc(C3CCCCC3)c3c(c2C#N)CCOC3)CCN1C(=O)c1ccoc1 (stereo not drawn) [Compound 258, ethyl 4-(5-cyano-8-cyclohexyl-3,4-dihydro-1H-pyrano[3,4-c]pyridin-6-yl)-1-(furan-3-carbonyl) piperazine-2-carboxylate] was run?
**A.** 1000 to 10000 nM

**Q.** Which IC50 does the source give for CCOC(=O)C1CN(c2nc(C3CC3)c3c(c2C#N)CC(C)(C)OC3)CCN1C(=O)c1ccoc1 (stereo not drawn) [Compound 259, ethyl 4-(5-cyano-8-cyclopropyl-3,3-dimethyl-3,4-dihydro-1H-pyrano[3,4-c]pyridin-6-yl)-1-(furan-3-carbonyl)piperazine-2-carboxylate] here?
**A.** 1000 to 10000 nM

Reference: US9662327B2 (AGIOS PHARMACEUTICALS, INC, priority 2011, dated 2017)
